Measurements reported in patent publication US20160205982A1, “LIFE ENHANCING BEVERAGES” (REOXCYN DISCOVERIES GROUP, INC., priority 2013, published 2016).

What was measured:
[1] = test system: NRF2; assay: Western blot of NRF2 in nuclear extracts of HMVEC-L; type: cell-based, human; conditions: H2O2 30 min, positive control
Description: (§1) 8. A Western Blot analysis was done on extra-nuclear and intra-nuclear fractions, separated by differential centrifugation, of serum starved HMVEC-L cell cultures exposed to <1% ASEA compared with a positive hydrogen peroxide control to determine phosphorylation events (oxidant action) in the extra-nuclear fraction and NRF2 (antioxidant transcription) in the intra-nuclear fraction at 0, 30, 60, 90 and 120 min. intervals.
(§2) Experimental Methods for Western Blot Validation of NRF2 Nuclear Accumulation: HMVEC-L were treated with 1% ASEA, nuclear extracts were separated through centrifugal differentiation from the extra-nuclear cytosol at 30, 60 and 120 min and subjected to Western Blot analysis for NRF2. In the Western blot experiment the extra-nuclear fraction was probed for phosphorylated proteins using a combination of anti-phospho serine, threonine and tyrosine antibodies. Virtually all cellular processes are regulated by posttranslational modifications and protein phosphorylation is a prevalent mechanism. Observable changes in protein phosphorylation can lead to a mechanistic understanding of the cellular processes perturbed by ASEA and provide a defined endpoint to better define dose-dependent regulation of cell function by ASEA in vitro, as well as provide a potential candidate molecular marker that may be used to provide in vitro-in vivo correlates. […]

[2] = test system: phosphorylated proteins (extra-nuclear fraction); assay: Western blot of protein phosphorylation in extra-nuclear fraction of HMVEC-L; type: cell-based, human; conditions: H2O2 treatment
Description: as §1, §2

`OO` [H2O2, Hydrogen peroxide] was tested, and the “NRF2 levels in nuclear extracts” value [1] was “did not increase” and the “phosphorylation of the protein detected in extra-nuclear fraction” value [2] was “marked increase”.
